Laboratory results published in PubChem BioAssay AID1259407 (Chemical Carcinogenesis Research Information System (CCRIS), 2018).
Activity calls are given as the source filed them. How the calls were made is not given here.

System: CCRIS mutagenicity, Ames/micronucleus/aberration tests
Test: CCRIS mutagenicity studies

O=C1c2ccccc2C(=O)C1c1ccc2ccccc2n1
mutagenic call (Test System: AMES SALMONELLA TYPHIMURIUM, Strain/Indicator: TA97, Metabolic Activation: HAMSTER, LIVER, S-9, AROCLOR 1254 (10%), Method: PREINCUBATION): inactive; negative | mutagenic call (Test System: AMES SALMONELLA TYPHIMURIUM, Strain/Indicator: TA97, Metabolic Activation: HAMSTER, LIVER, S-9, AROCLOR 1254 (30%), Method: PREINCUBATION): inactive; negative | mutagenic call (Test System: AMES SALMONELLA TYPHIMURIUM, Strain/Indicator: TA97, Metabolic Activation: NONE, Method: PREINCUBATION): inactive; negative | mutagenic call (Test System: AMES SALMONELLA TYPHIMURIUM, Strain/Indicator: TA97, Metabolic Activation: RAT, LIVER, S-9, AROCLOR 1254 (10%), Method: PREINCUBATION): inactive; negative | mutagenic call (Test System: AMES SALMONELLA TYPHIMURIUM, Strain/Indicator: TA97, Metabolic Activation: RAT, LIVER, S-9, AROCLOR 1254 (30%), Method: PREINCUBATION): inactive; negative | mutagenic call (Test System: AMES SALMONELLA TYPHIMURIUM, Strain/Indicator: TA98, Metabolic Activation: HAMSTER, LIVER, S-9, AROCLOR 1254 (5%), Method: PREINCUBATION): inactive; negative | mutagenic call (Test System: AMES SALMONELLA TYPHIMURIUM, Strain/Indicator: TA98, Metabolic Activation: HAMSTER, LIVER, S-9, AROCLOR 1254 (10%), Method: PREINCUBATION): inactive; negative | mutagenic call (Test System: AMES SALMONELLA TYPHIMURIUM, Strain/Indicator: TA98, Metabolic Activation: HAMSTER, LIVER, S-9, AROCLOR 1254 (30%), Method: PREINCUBATION): inactive; negative | mutagenic call (Test System: AMES SALMONELLA TYPHIMURIUM, Strain/Indicator: TA98, Metabolic Activation: NONE, Method: PREINCUBATION): inactive; negative | mutagenic call (Test System: AMES SALMONELLA TYPHIMURIUM, Strain/Indicator: TA98, Metabolic Activation: RAT, LIVER, S-9, AROCLOR 1254 (5%), Method: PREINCUBATION): inactive; negative | mutagenic call (Test System: AMES SALMONELLA TYPHIMURIUM, Strain/Indicator: TA98, Metabolic Activation: RAT, LIVER, S-9, AROCLOR 1254 (10%), Method: PREINCUBATION): inactive; negative | mutagenic call (Test System: AMES SALMONELLA TYPHIMURIUM, Strain/Indicator: TA98, Metabolic Activation: RAT, LIVER, S-9, AROCLOR 1254 (30%), Method: PREINCUBATION): active; positive | mutagenic call (Test System: AMES SALMONELLA TYPHIMURIUM, Strain/Indicator: TA100, Metabolic Activation: HAMSTER, LIVER, S-9, AROCLOR 1254 (10%), Method: PREINCUBATION): inactive; negative | mutagenic call (Test System: AMES SALMONELLA TYPHIMURIUM, Strain/Indicator: TA100, Metabolic Activation: HAMSTER, LIVER, S-9, AROCLOR 1254 (30%), Method: PREINCUBATION): active; positive | mutagenic call (Test System: AMES SALMONELLA TYPHIMURIUM, Strain/Indicator: TA100, Metabolic Activation: NONE, Method: PREINCUBATION): inactive; negative | mutagenic call (Test System: AMES SALMONELLA TYPHIMURIUM, Strain/Indicator: TA100, Metabolic Activation: RAT, LIVER, S-9, AROCLOR 1254 (5 OR 10%), Method: PREINCUBATION): inactive; negative | mutagenic call (Test System: AMES SALMONELLA TYPHIMURIUM, Strain/Indicator: TA100, Metabolic Activation: RAT, LIVER, S-9, AROCLOR 1254 (30%), Method: PREINCUBATION): active; positive | mutagenic call (Test System: AMES SALMONELLA TYPHIMURIUM, Strain/Indicator: TA1535, Metabolic Activation: HAMSTER, LIVER, S-9, AROCLOR 1254 (10%), Method: PREINCUBATION): inactive; negative | mutagenic call (Test System: AMES SALMONELLA TYPHIMURIUM, Strain/Indicator: TA1535, Metabolic Activation: HAMSTER, LIVER, S-9, AROCLOR 1254 (30%), Method: PREINCUBATION): inactive; negative | mutagenic call (Test System: AMES SALMONELLA TYPHIMURIUM, Strain/Indicator: TA1535, Metabolic Activation: NONE, Method: PREINCUBATION): inactive; negative | mutagenic call (Test System: AMES SALMONELLA TYPHIMURIUM, Strain/Indicator: TA1535, Metabolic Activation: RAT, LIVER, S-9, AROCLOR 1254 (10%), Method: PREINCUBATION): inactive; negative | mutagenic call (Test System: AMES SALMONELLA TYPHIMURIUM, Strain/Indicator: TA1535, Metabolic Activation: RAT, LIVER, S-9, AROCLOR 1254 (30%), Method: PREINCUBATION): inactive; negative | mutagenic call (Test System: AMES SALMONELLA TYPHIMURIUM, Strain/Indicator: TA1537 R+, Metabolic Activation: NONE, Method: STANDARD PLATE): active; positive | mutagenic call (Test System: AMES SALMONELLA TYPHIMURIUM, Strain/Indicator: TA1537 R+, Metabolic Activation: RAT, LIVER, S-9, AROCLOR 1254, Method: STANDARD PLATE): active; positive | mutagenic call (Test System: AMES SALMONELLA TYPHIMURIUM, Strain/Indicator: TA1538, Metabolic Activation: HAMSTER, LIVER, S-9, AROCLOR 1254 (30%), Method: PREINCUBATION): active; positive | mutagenic call (Test System: AMES SALMONELLA TYPHIMURIUM, Strain/Indicator: TA1538, Metabolic Activation: RAT, LIVER, S-9, AROCLOR 1254 (30%), Method: PREINCUBATION): active; positive

CCCN(CCC)N=O
mutagenic call (Test System: AMES SALMONELLA TYPHIMURIUM, Strain/Indicator: TA100, Metabolic Activation: HAMSTER, LIVER, S-9, Method: PREINCUBATION): active; positive | mutagenic call (Test System: AMES SALMONELLA TYPHIMURIUM, Strain/Indicator: TA100, Metabolic Activation: HUMAN, LIVER, S-9, Method: PREINCUBATION): inactive; negative | mutagenic call (Test System: AMES SALMONELLA TYPHIMURIUM, Strain/Indicator: TA100, Metabolic Activation: MOUSE, INTACT UROTHELIAL CELLS, Method: FLUCTUATION TEST): active; positive | mutagenic call (Test System: AMES SALMONELLA TYPHIMURIUM, Strain/Indicator: TA100, Metabolic Activation: NONE, Method: STANDARD PLATE): inactive; negative | mutagenic call (Test System: AMES SALMONELLA TYPHIMURIUM, Strain/Indicator: TA100, Metabolic Activation: PIG, LIVER, S-9, Method: PREINCUBATION): inactive; negative | mutagenic call (Test System: AMES SALMONELLA TYPHIMURIUM, Strain/Indicator: TA100, Metabolic Activation: RABBIT, LIVER, S-9, Method: STANDARD PLATE): inactive; negative | mutagenic call (Test System: AMES SALMONELLA TYPHIMURIUM, Strain/Indicator: TA100, Metabolic Activation: RABBIT, LUNG, S-9, Method: STANDARD PLATE): inactive; negative | mutagenic call (Test System: AMES SALMONELLA TYPHIMURIUM, Strain/Indicator: TA100, Metabolic Activation: RABBIT, NASAL, S-9, Method: STANDARD PLATE): inactive; negative | mutagenic call (Test System: AMES SALMONELLA TYPHIMURIUM, Strain/Indicator: TA100, Metabolic Activation: RAT, INTACT UROTHELIAL CELLS, Method: FLUCTUATION TEST): active; positive | mutagenic call (Test System: AMES SALMONELLA TYPHIMURIUM, Strain/Indicator: TA100, Metabolic Activation: RAT, LIVER, S-9, AROCLOR 1254, Method: PREINCUBATION): active; positive | mutagenic call (Test System: AMES SALMONELLA TYPHIMURIUM, Strain/Indicator: TA100, Metabolic Activation: RAT, LIVER, S-9, KC500 OR PHENOBARBITAL, Method: LIQUID SUSPENSION): active; positive | mutagenic call (Test System: AMES SALMONELLA TYPHIMURIUM, Strain/Indicator: TA100, Metabolic Activation: RAT, LIVER, S-9, Method: PREINCUBATION): inactive; negative | mutagenic call (Test System: AMES SALMONELLA TYPHIMURIUM, Strain/Indicator: TA100, Metabolic Activation: RAT, LIVER, S-9, Method: STANDARD PLATE): inactive; negative | mutagenic call (Test System: AMES SALMONELLA TYPHIMURIUM, Strain/Indicator: TA100, Metabolic Activation: RAT, LUNG, S-9, Method: STANDARD PLATE): inactive; negative | mutagenic call (Test System: AMES SALMONELLA TYPHIMURIUM, Strain/Indicator: TA100, Metabolic Activation: RAT, NASAL, S-9, Method: STANDARD PLATE): active; positive | mutagenic call (Test System: AMES SALMONELLA TYPHIMURIUM, Strain/Indicator: TA102, Metabolic Activation: RAT, LIVER, S-9, AROCLOR 1254, Method: PREINCUBATION): active; positive | mutagenic call (Test System: AMES SALMONELLA TYPHIMURIUM, Strain/Indicator: TA104, Metabolic Activation: RAT, LIVER, S-9, AROCLOR 1254, Method: PREINCUBATION): active; positive | mutagenic call (Test System: AMES SALMONELLA TYPHIMURIUM, Strain/Indicator: TA1530, Metabolic Activation: RAT, LIVER, S-9, Method: STANDARD PLATE): active; positive | mutagenic call (Test System: AMES SALMONELLA TYPHIMURIUM, Strain/Indicator: TA1535, Metabolic Activation: RAT, LIVER, S-9, AROCLOR 1254, Method: PREINCUBATION): active; positive | mutagenic call (Test System: AMES SALMONELLA TYPHIMURIUM, Strain/Indicator: TA1535ER, Metabolic Activation: NONE, Method: STANDARD PLATE): inactive; negative | mutagenic call (Test System: AMES SALMONELLA TYPHIMURIUM, Strain/Indicator: TA1975, Metabolic Activation: RAT, LIVER, S-9, AROCLOR 1254, Method: PREINCUBATION): active; positive | mutagenic call (Test System: AMES SALMONELLA TYPHIMURIUM, Strain/Indicator: YG7104ER, Metabolic Activation: NONE, Method: STANDARD PLATE): active; positive | mutagenic call (Test System: AMES SALMONELLA TYPHIMURIUM, Strain/Indicator: YG7108ER, Metabolic Activation: NONE, Method: STANDARD PLATE): active; positive | mutagenic call (Test System: CHINESE HAMSTER V-79, Strain/Indicator: V-79/8-AZAGUANINE, Metabolic Activation: RAT, LIVER, S-15, PHENOBARBITAL, Method: STANDARD PLATE): active; positive | mutagenic call (Test System: CHINESE HAMSTER V-79, Strain/Indicator: V-79/OUABAIN, Metabolic Activation: HAMSTER, HEPATOCYTES, Method: CELL-MEDIATED): active; positive
